Measurements taken from patent US7741350B1 (Cara Therapeutics, Inc., priority 2009, dated 2010).
Read-outs that look alike come from different tables or passages of the source.

Assays:
[1] = molecular target: human CB2 receptor (hCB2) (Homo sapiens, UniProt P34972); experiment: cAMP assay at human CB2 receptor; assay type: cell-based; details: hCB2R, maximum measurable range 30 μM
How it was run: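 Values expressed as percent of the window between forskolin-stimulated wells and forskolin plus 1 μM CP55,940 wells.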

male Sprague-Dawley rats = experiment: Anti-hyperalgesia in the Complete Freund's Adjuvant (CFA) model of inflammatory pain; assay type: in vivo; details: PO dose 3 mg/kg; 1 hr after dosing; thermal hyperalgesia; rat; read-out: % MPE (1 hr), paw withdrawal latency after CFA injection
Procedure: The anti-hyperalgesic effects of test compounds in the Complete Freund's Adjuvant (CFA) model of inflammatory pain were determined essentially as described in U.S. Pat. No. 7,517,874 using male Sprague-Dawley rats (Hsd: Sprague-Dawley®SD®, Harlan, Indianapolis, Ind.) weighing 200-300 grams.
Test compounds were prepared in a Cremaphor vehicle mixture of 1:1:18 CremophorEL:ethanol:water. Cremophor was obtained from Sigma Chemical (St. Louis, Mo.). The vehicle mixture or vehicle mixture plus test compound were each administered orally.
Assessment of thermal hyperalgesia: Baseline and post-treatment paw withdrawal latencies to a noxious thermal stimulus were measured using a plantar test apparatus (Ugo Basile; obtained from Stoelting, Wood Dale, Ill.). This apparatus generates an infrared heat source that is linearly increasing in intensity. To avoid tissue damage, the power to the heat source was cut off after 20 seconds.
Paw withdrawal latency is defined as the time required for the rat to flick its paw away from the thermal stimulus. Ibuprofen (100 mg/kg, p.o.) was used as the positive control. Paw withdrawal latencies (in seconds) were measured before (naïve paw latency, L1) and 24 hr following (CFA-inflamed paw latency, L2) a single intraplantar injection of 0.1 mL CFA (Sigma-Aldrich, cat F5881, Mycobacterium tuberculosis 1 mg/ml).
Test compounds were administered orally 23 hours following CFA injection; i.e., 1 hour prior to thermal assessment (compound treated CFA-inflamed paw latency, L3). The mean paw withdrawal latency and standard error of the mean (SEM) was determined for the injured paws for each treatment group.
Data were expressed as percent maximum […] effect (% MPE) defined as the percentage of restoration of latency of test compound-treated CFA inflamed paw as compared to the naïve paw latency.

[2] = molecular target: human CB1 receptor (hCB1) (Homo sapiens, UniProt P21554); experiment: cAMP assay at human CB1 receptor; assay type: cell-based; details: hCB1R; maximum measurable range 30 μM; read-out: EC50 (Potency at Human CB1 determined by cAMP Assay)
How it was run: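 Changes in intracellular cAMP measured by TR-FRET (665/615 nm) in forskolin-stimulated cells; cAMP read from a concurrent standard curve. Values normalised between forskolin and forskolin plus 1 μM CP55,940 wells. EC50 and intrinsic activity relative to CP55,940 from four-parameter nonlinear regression.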

[3] = EC50 (Potency at Human CB2 determined by cAMP Assay)
[4] = read-out: EC50 (Potency at Human CB2 determined by cAMP Assay)

Sequence of human CB2 receptor (hCB2) (P34972 whole entry): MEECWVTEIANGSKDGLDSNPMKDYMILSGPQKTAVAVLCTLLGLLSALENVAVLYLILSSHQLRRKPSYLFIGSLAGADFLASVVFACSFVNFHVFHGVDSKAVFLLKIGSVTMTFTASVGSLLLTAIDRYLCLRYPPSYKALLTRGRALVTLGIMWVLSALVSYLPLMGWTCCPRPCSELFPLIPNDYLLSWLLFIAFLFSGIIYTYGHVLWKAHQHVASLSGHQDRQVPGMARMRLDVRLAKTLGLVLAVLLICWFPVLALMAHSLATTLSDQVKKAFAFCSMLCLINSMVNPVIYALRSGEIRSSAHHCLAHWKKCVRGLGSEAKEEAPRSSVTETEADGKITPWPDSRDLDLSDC
Sequence of human CB1 receptor (hCB1) (P21554 whole entry): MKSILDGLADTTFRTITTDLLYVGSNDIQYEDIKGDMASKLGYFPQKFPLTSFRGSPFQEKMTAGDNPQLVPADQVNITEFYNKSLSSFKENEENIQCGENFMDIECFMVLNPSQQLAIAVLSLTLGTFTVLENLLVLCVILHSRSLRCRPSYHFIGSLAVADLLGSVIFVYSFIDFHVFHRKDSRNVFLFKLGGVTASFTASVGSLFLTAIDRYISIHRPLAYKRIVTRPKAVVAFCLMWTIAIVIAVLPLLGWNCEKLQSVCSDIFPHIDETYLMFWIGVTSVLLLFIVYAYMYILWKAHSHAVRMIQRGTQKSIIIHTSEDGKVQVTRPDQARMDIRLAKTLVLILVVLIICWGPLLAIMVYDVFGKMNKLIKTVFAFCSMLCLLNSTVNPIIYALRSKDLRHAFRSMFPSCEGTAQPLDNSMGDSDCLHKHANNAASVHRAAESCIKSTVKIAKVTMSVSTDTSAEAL

| Compound | EC50 [1, 3] [nM] | inhibition in vivo at 3 mg/kg (male Sprague-Dawley rats) [%] | EC50 [2] [nM] | EC50 [1, 4] [nM] |
| --- | --- | --- | --- | --- |
| CN1CCCc2c1c(-c1cc(Cl)ccc1F)nn2C(=O)N[C@H](C(=O)NCCO)C(C)(C)C [Compound 94, (S)-3-(5-chloro-2-fluorophenyl)-N-(1-(2-hydroxyethylamino)-3,3-dimethyl-1-oxobutan-2-yl)-4-methyl-4,5,6,7-tetrahydro-1H-pyrazolo[4,3-b]pyridine-1-carboxamide] | < 1000 | 27 | < 1000 | – |
| CC(C)(C)[C@H](NC(=O)n1nc(-c2ccc(F)c(F)c2)c2c1COCC2)C(=O)NCCO [Compound 95, (S)-3-(3,4-difluorophenyl)-N-(1-(2-hydroxyethylamino)-3,3-dimethyl-1-oxobutan-2-yl)-4,5-dihydropyrano[3,4-c]pyrazole-1(7H)-carboxamide] | < 1000 | 41 | < 1000 | – |
| CC(C)(C)[C@H](NC(=O)n1nc(-c2cc(Cl)ccc2F)c2c1COCC2)C(=O)NCCO [Compound 96, (S)-3-(5-chloro-2-fluorophenyl)-N-(1-(2-hydroxyethylamino)-3,3-dimethyl-1-oxobutan-2-yl)-4,5-dihydropyrano[3,4-c]pyrazole-1(7H)-carboxamide] | < 1000 | 52 | < 1000 | – |
| CN1CCc2c(c(-c3ccc(F)c(F)c3)nn2C(=O)N[C@H](C(=O)NCCO)C(C)(C)C)C1 [Compound 98, (S)-3-(3,4-difluorophenyl)-N-(1-(2-hydroxyethylamino)-3,3-dimethyl-1-oxobutan-2-yl)-5-methyl-4,5,6,7-tetrahydro-1H-pyrazolo[4,3-c]pyridine-1-carboxamide] | < 1000 | 36 | < 1000 | – |
| CC(C)(C)[C@H](NC(=O)n1nc(-c2ccc(F)c(F)c2)c2c1CCOC2)C(N)=O [Compound 99, (S)—N-(1-amino-3,3-dimethyl-1-oxobutan-2-yl)-3-(3,4-difluorophenyl)-6,7-dihydropyrano[4,3-c]pyrazole-1(4H)-carboxamide] | – | 68 | < 1000 | > 1000 |
| CNC(=O)[C@@H](NC(=O)n1nc(-c2ccc(F)c(F)c2)c2c1CCCN2CCO)C(C)(C)C [Compound 101, (S)-3-(3,4-difluorophenyl)-N-(3,3-dimethyl-1-(methylamino)-1-oxobutan-2-yl)-4-(2-hydroxyethyl)-4,5,6,7-tetrahydro-1H-pyrazolo[4,3-b]pyridine-1-carboxamide] | – | 28 | < 1000 | < 1000 |
